Test systems include IGROV1 ovarian; SNB-75 CNS; SR leukemia; ACHN renal; SK-MEL-2 melanoma; OVCAR-5 ovarian; CCRF-CEM leukemia; MALME-3M melanoma; SK-MEL-28 melanoma; RXF 393 renal.
Common to all, as to experiment: growth of human tumour cells (NCI), 48 h

Our source for the TGI and GI50 values is PubChem BioAssay (NCI).

Where “and” joins values, the source holds several entries; their conditions need not be identical. Identical values can stand only once.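 Briefly, cells in 96-well plates were exposed to five compound concentrations for 48 h, and endpoints were estimated by linear interpolation. GI50: concentration for 50% inhibition of growth. TGI marks complete inhibition of growth.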

As to `C=CCc1cc2cccc(OC)c2oc1=O`, the TGI in the assay with IGROV1 ovarian, with SNB-75 CNS, with SR leukemia, with ACHN renal, in the assay on SK-MEL-2 melanoma and in the assay with OVCAR-5 ovarian was > 100 µM throughout. In addition, the TGI with CCRF-CEM leukemia, in the assay on MALME-3M melanoma and in the assay on SK-MEL-28 melanoma was > 100 µM throughout.
Consider `Cc1nn(C(=O)c2ccccc2O)c2c1C(c1ccccc1)SC(N)=N2` (centres undefined), for which the TGI was 6.96 µM in the assay on IGROV1 ovarian; > 10 µM with RXF 393 renal; 6.49 µM in the assay with SR leukemia; > 10 µM in the assay with ACHN renal; > 10 µM with SK-MEL-2 melanoma; > 10 µM in the assay on OVCAR-5 ovarian. The TGI in the assay with CCRF-CEM leukemia was 8.15 µM; in the assay with MALME-3M melanoma it was > 10 µM; with SK-MEL-28 melanoma it was > 10 µM.
As for `O=C1c2cc(Br)ccc2-c2c1c1ccc([N+](=O)[O-])cc1c(=O)n2CCCCl`, the GI50 is 0.13 µM in the assay on IGROV1 ovarian; 0.487 µM with RXF 393 renal; < 0.01 µM in the assay with SR leukemia; < 0.0151 µM in the assay on ACHN renal; 10.8 µM in the assay with SK-MEL-2 melanoma; 2.57 µM with OVCAR-5 ovarian. Further, the GI50 in the assay on CCRF-CEM leukemia was < 0.01 µM; in the assay with MALME-3M melanoma it was 0.25 µM; in the assay with SK-MEL-28 melanoma, 1.61 µM. In addition, the TGI in the assay with IGROV1 ovarian turned out to be 4.58 µM; in the assay on RXF 393 renal, 14.2 µM; in the assay on ACHN renal, 6.79 µM; with SK-MEL-2 melanoma, 37.3 µM; with OVCAR-5 ovarian, 21.8 µM; in the assay with CCRF-CEM leukemia, 0.245 µM. For the same molecule, the TGI is 7.74 µM with MALME-3M melanoma and > 100 µM in the assay with SK-MEL-28 melanoma.
Consider `NC(=O)c1c[se]c(C2OC(CO)C(O)C2O)n1` (centres undefined), for which the TGI in the assay on IGROV1 ovarian, in the assay with SNB-75 CNS, in the assay on SR leukemia, in the assay with ACHN renal, in the assay on SK-MEL-2 melanoma and in the assay on OVCAR-5 ovarian was > 100 µM each time. For the same molecule, the TGI in the assay on CCRF-CEM leukemia, in the assay with MALME-3M melanoma and with SK-MEL-28 melanoma was > 100 µM throughout.
Take `CC1(C)C=CC[C@]2(C)[C@H]3CC[C@@H]4[C@H]5[C@H](C(=O)/C=C/c6cccnc6)CC[C@]5(CO)CC[C@@]4(C)[C@]3(C)CC[C@@H]12`: the GI50 in the assay with IGROV1 ovarian was 1.31 µM; in the assay with RXF 393 renal, 1.12 µM; in the assay with SR leukemia, 0.631 µM; in the assay with ACHN renal, 1.14 µM; with SK-MEL-2 melanoma, 1.28 µM; with OVCAR-5 ovarian, 1.32 µM. In addition, the GI50 is 0.56 µM in the assay on CCRF-CEM leukemia, 1.38 µM in the assay with MALME-3M melanoma and 1.54 µM in the assay on SK-MEL-28 melanoma. Also, the TGI with IGROV1 ovarian was 2.77 µM; with RXF 393 renal it was 2.37 µM; in the assay with SR leukemia, 3.7 µM; in the assay on ACHN renal, 2.35 µM; in the assay on SK-MEL-2 melanoma, 2.76 µM; in the assay on OVCAR-5 ovarian, 2.83 µM. For the same molecule, the TGI came out at 5.34 µM in the assay with CCRF-CEM leukemia, 2.8 µM with MALME-3M melanoma and 2.98 µM with SK-MEL-28 melanoma.
With `CC(=O)N/C(=C\c1ccc(/C=C(\NC(C)=O)c2nc3ccc(Cl)cc3[nH]2)cc1)c1nc2ccccc2[nH]1`, the TGI with IGROV1 ovarian, with SNB-75 CNS, with SR leukemia, with ACHN renal, with SK-MEL-2 melanoma and with OVCAR-5 ovarian was > 100 µM throughout. The TGI in the assay with CCRF-CEM leukemia, in the assay with MALME-3M melanoma and with SK-MEL-28 melanoma was > 100 µM in each case.
With `O=C1C(Br)=C[C@H]2C3C=CC(Br)(C3=O)[C@@H]12` (some centres undefined), the TGI in the assay on IGROV1 ovarian was determined as 29.4 µM; in the assay with RXF 393 renal, 27.3 µM; with SNB-75 CNS, 92.8 µM; in the assay with ACHN renal, 34.3 µM; in the assay with SK-MEL-2 melanoma, 28.4 µM; in the assay with OVCAR-5 ovarian, 29 µM. The TGI in the assay on CCRF-CEM leukemia came to 13.7 µM; with MALME-3M melanoma, 26.2 µM; in the assay with SK-MEL-28 melanoma it was 25.7 µM.
Turning to `CCCCC#COP(=O)(OCC)OCC`, the TGI in the assay with IGROV1 ovarian, with SR leukemia, in the assay on ACHN renal, in the assay on SK-MEL-2 melanoma, in the assay with OVCAR-5 ovarian and in the assay with CCRF-CEM leukemia was > 100 µM in each case. Moreover, the TGI in the assay on MALME-3M melanoma was > 100 µM.
Regarding `Nc1ccc(C(=O)N/C(=C\C=C\c2ccco2)c2nc3[nH]c(=S)[nH]c(=O)c3[nH]2)cc1`, the TGI in the assay on IGROV1 ovarian, in the assay with RXF 393 renal, in the assay on SR leukemia, in the assay on ACHN renal, in the assay with SK-MEL-2 melanoma and with OVCAR-5 ovarian was > 100 µM throughout. Further, the TGI in the assay on CCRF-CEM leukemia, with MALME-3M melanoma and in the assay with SK-MEL-28 melanoma was > 100 µM each time.
Turning to `CC(=O)O[C@H]1C(N(C)C(=O)c2ccccc2)CC[C@]2(C)C3CC[C@@]4(C)C(CC(O)[C@@H]4C(C)N(C)C)[C@@H]3CCC12` (some centres undefined), the TGI in the assay with IGROV1 ovarian, in the assay on SNB-75 CNS, in the assay with SR leukemia, in the assay with ACHN renal, in the assay on SK-MEL-2 melanoma and in the assay on OVCAR-5 ovarian was > 100 µM in each case. The TGI with CCRF-CEM leukemia, with MALME-3M melanoma and with SK-MEL-28 melanoma was > 100 µM each time.
In the case of `Cc1nc(N)sc1C(=O)/C=C/c1ccc(/C=C/C(=O)c2sc(NC(=O)CCCCCCCCC(=O)Nc3nc(C)c(C(=O)/C=C/c4ccc(/C=C/C(=O)c5sc(N)nc5C)cc4)s3)nc2C)cc1`, the TGI in the assay with IGROV1 ovarian, in the assay with RXF 393 renal, with SR leukemia, in the assay with ACHN renal, with SK-MEL-2 melanoma and in the assay on OVCAR-5 ovarian was > 100 µM throughout. In addition, the TGI in the assay on CCRF-CEM leukemia, in the assay with MALME-3M melanoma and in the assay with SK-MEL-28 melanoma was > 100 µM throughout.
As for `COc1cc(C2c3cc4c(cc3[C@@H](Nc3ccc(C(=O)O)cc3)C3COC(=O)[C@H]23)OCO4)cc(OC)c1O` (some centres undefined), the TGI in the assay on IGROV1 ovarian was 68.6 µM and > 17.5 µM; with RXF 393 renal, 37 µM and > 17.5 µM; in the assay on SNB-75 CNS, 27.6 µM and > 17.5 µM; in the assay on ACHN renal, > 100 µM; in the assay with SK-MEL-2 melanoma it was 75.3 µM and > 17.5 µM; in the assay with OVCAR-5 ovarian, > 100 µM. Moreover, the TGI with CCRF-CEM leukemia was 15.1 µM and 8.82 µM; in the assay with MALME-3M melanoma, 47.9 µM and > 17.5 µM; in the assay on SK-MEL-28 melanoma, > 100 µM. In addition, the GI50 in the assay with OVCAR-5 ovarian was 48.3 µM and > 17.5 µM.
